The record followed here is paper PMC4807533, “Specific tracking of xylan using fluorescent-tagged carbohydrate-binding module 15 as molecular probe” (Biotechnology for Biofuels, 2016).

Read-outs that look alike come from different tables or passages of the source.

In this assay the target is T1, OC15 (mOrange2-CBM15 fusion probe) (Cellvibrio japonicus, UniProt Q59675).
T1 construct: gene xyn10C; CBM15 domain of xylanase Xyn10C, C-terminal; N-terminal His6-mOrange2 reporter, tags kept; single Gly linker; synthetic gene, pET11a, E. coli BL21-Gold(DE3)pLysS; primers imply CBM15 begins VAAS and ends at stop after EAYSAN
T1 sequence (Q59675 86-247): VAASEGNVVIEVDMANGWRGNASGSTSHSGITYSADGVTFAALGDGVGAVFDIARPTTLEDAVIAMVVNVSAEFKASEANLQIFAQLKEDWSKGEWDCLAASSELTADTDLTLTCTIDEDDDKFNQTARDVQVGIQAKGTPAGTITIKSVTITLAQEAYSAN
Briefly: isothermal titration calorimetry. The assay is classed as binding. The settings on record: 20 mM Tris-HCl pH 7.5, 20 mM NaCl, 5 mM CaCl2, 25 °C. From the text: isothermal titration calorimetry on OC15 (mOrange2-CBM15 fusion probe)
(In general: ITC needs no label: the signal is the heat of the interaction.)

In the case of `OC[C@H]1O[C@@H](O[C@H]2[C@H](O)[C@@H](O)[C@H](O[C@H]3[C@H](O)[C@@H](O)[C@H](O[C@H]4[C@H](O)[C@@H](O)[C@H](O[C@H]5[C@H](O)[C@@H](O)[C@H](O[C@H]6[C@H](O)[C@@H](O)C(O)O[C@@H]6CO)O[C@@H]5CO)O[C@@H]4CO)O[C@@H]3CO)O[C@@H]2CO)[C@H](O)[C@@H](O)[C@@H]1O` (stereo partly shown) [cellohexaose], the Kd is 476 µM (cellohexaose of 90 % purity, read-out: K a × 10^3 (M^-1) (converted)) and 479 µM (cellohexaose of 90 % purity, read-out: K d).

As to `OC1OC[C@@H](O[C@@H]2OC[C@@H](O[C@@H]3OC[C@@H](O[C@@H]4OC[C@@H](O[C@@H]5OC[C@@H](O[C@@H]6OC[C@@H](O)[C@H](O)[C@H]6O)[C@H](O)[C@H]5O)[C@H](O)[C@H]4O)[C@H](O)[C@H]3O)[C@H](O)[C@H]2O)[C@H](O)[C@H]1O` (stereo partly shown) [xylohexaose], the Kd was 29.4 µM (read-out: K a × 10^3 (M^-1) (converted)) and 29.4 µM (read-out: K d).
